Consider one molecule from article PMC7072329, “Discovery of Kynurenines Containing Oligopeptides as Potent Opioid Receptor Agonists” (Biomolecules, 2020).

The target in one test is NMDA receptor. The experiment in a line: [3H]MK-801 competition binding, rat brain membrane. The settings on record: read-out: Ki + S.E.M., displacement of [3H]MK-801. Background: In a radioligand displacement assay an active substance lowers the binding of a labelled ligand.
The next test deals with G-protein. The test is described as follows: functional [35S]GTPγS binding, guinea pig brain membrane homogenates. Format: biochemical. The settings on record: ligand alone. How it is done:
Rats and guinea pigs were decapitated, and their brains were quickly removed. The brains were used for membrane preparation following the procedure reported by Benyhe for binding and [^35S]GTPγS binding experiments, in agreement with the protocol of Zádor et al..
Homogenization of brains was performed in 30 volumes (v/w) of ice-cold 50 mM Tris-HCl pH 7.4 buffer with a Teflon-glass Braun homogenizer at 1500 rpm. The centrifuge was settled at 18,000 rpm for 20 min at 4 °C, the resulting supernatant discarded, and the pellet taken up in the original volume of Tris-HCl buffer. Incubation of homogenate at 37 °C for 30 min was performed in a shaking water-bath. Five volumes of 50 mM Tris-HCl pH 7.4 buffer were used to suspend the final pellet at −80 °C. For the [^35S]GTPγS binding experiments, the brains were homogenized with a Dounce in 5 volumes (v/w) of ice-cold TEM (Tris-HCl, EGTA, MgCl2) at −80 °C. The protein content of the membrane preparation was determined by the method of Bradford, BSA being used as a standard.
The functional [^35S]GTPγS binding experiments were performed as previously described. Briefly the membrane homogenates were incubated at 30 °C for 60 min in Tris-EGTA buffer (pH 7.4) composed of 50 mM Tris-HCl, 1 mM EGTA, 3 mM MgCl2, 100 mM NaCl, containing 20 MBq/0.05 cm^3 [^35S]GTPγS (0.05 nM) and increasing concentrations (10^−10 to 10^−5 M) of ligands. The experiments were performed in the presence of excess GDP (30 μM) in a final volume of 1 mL. Total binding was measured in the absence of test compounds, non-specific binding was determined in the presence of 10 μM unlabeled GTPγS. The reaction was terminated by rapid filtration under vacuum and washed three times with 5 mL ice-cold 50 mM Tris-HCl (pH 7.4) buffer through Whatman GF/B glass fibers. The radioactivity of the filters was detected in an UltimaGold^TM MV aqueous scintillation cocktail with a Packard Tricarb 2300TR liquid scintillation counter.
Experimental data are presented as means ± S.E.M. Sigmoid dose-response curves were fitted with GraphPad Prism 5.0 (GraphPad Prism Software Inc., San Diego, CA, USA). An unpaired t-test with two-tailed p value was performed to determine the significance level. In the competition binding assays, the ‘One site competition’ fitting was used to establish the equilibrium binding affinity (Ki value).
Figure S3. The effect of novel oligopeptides on G-protein activity in [35S]GTPγS binding assays in the absence or presence of the selective MOR antagonist cyprodime (Cyp) and the selective DOR antagonist naltrindole (NTI) in rat brain membrane homogenates (Figure A) and the selective KOR antagonist norbinaltorphine (nor-BNI) in guinea pig brain membrane homogenates (Figure B). […]

The subject of a further test is CD-1 male mice. The test is described as follows: formalin test. Format: in vivo. The following applies: s.c. in hind paw, 100 μg/20 μL, 15 min before formalin. How it is done:
In our experiments, we used CD-1 male mice (Harlan, Italy, 25–30 g) maintained in colony, housed in cages (7 mice per cage) under standard light/dark cycle (from 7:00 a.m. to 7:00 p.m.), temperature (21 ± 1 °C) and relative humidity (60% ± 10%) for at least 1 week. Food and water were available ad libitum. The Service for Biotechnology and Animal Welfare of the Istituto Superiore di Sanità and the Italian Ministry of Health authorized the experimental protocol according to Legislative Decree 26/14.
DMSO was purchased from Merck (Rome, Italy). Peptides solutions were freshly prepared using saline containing 0.9% NaCl and DMSO in the ratio DMSO/saline 1:5 v/v every experimental day. These solutions were injected at a volume of 10 μL/mouse for intracerebroventricular (i.c.v.) administrations or at a volume of 20 μL/mouse for subcutaneous administrations.
In the formalin test, the injection of a dilute solution of formalin (1%, 20 μL/paw) into the dorsal surface of the mouse hind paw evoked biphasic nociceptive behavioral responses, such as licking, biting the injected paw, or both, occurring from 0 to 10 min after formalin injection (the early phase) and a prolonged phase, occurring from 15 to 40 min (the late phase). Before the test, mice were individually placed in a Plexiglas observation cage (30 × 14 × 12 cm) for one hour, to acclimatize to the testing environment. The total time the animal spent licking or biting its paw during the early and late phase of formalin-induced nociception was recorded.
Experimental data were expressed as mean ± s.e.m. In the tail flick test, significant differences among the groups were evaluated with two-way ANOVA followed by Sidak’s multiple comparisons test. Formalin test data were analyzed by using one-way ANOVA, followed by Holm–Sidak’s multiple comparisons test. […] Statistical significance was set at p < 0.05. The data and statistical analysis comply with the recommendations on experimental design and analysis in pharmacology.
Early phase represents the formalin-induced nociceptive behavior recorded from 0 to 10 min after formalin injection; late phase is for the formalin-induced nociceptive behavior recorded from 15 to 40 min after formalin injection. V is for vehicle-treated animals. Statistical analysis: one-way ANOVA followed by Holm–Sidak’s multiple comparisons test. ** is for p < 0.01 and *** is for p < 0.001 vs. V. n = 7.

Where a SMILES comes first, the peptide text is derived from it. [ ]: non-standard residue; d: D form. Kyn = Nc1ccccc1C(=O)C[C@H](N)C(=O)O

As a reminder, the Ki is a measure of affinity in units of concentration, obtained from inhibition or displacement. On to `C[C@@H](NC(=O)[C@@H](N)Cc1ccc(O)cc1)C(=O)NCC(=O)N[C@@H](Cc1ccccc1)C(=O)N[C@@H](CC(=O)c1ccccc1N)C(N)=O` [Peptide K6] (H-Y[dA]GF[Kyn]-NH2), for which the Ki on NMDA receptor is over 10 µM. Also, in the test on G-protein, the “Emax + S.E.M., Ligand” value worked out at 139.8 ± 2.3%. In addition, in the test with CD-1 male mice (0 to 10 min), the “formalin-induced nociceptive behavior, early phase” value is on record as “able to reduce the nociceptive response to formalin in the early phase”. The “formalin-induced nociceptive behavior, late phase” value with CD-1 male mice (15 to 40 min) is “light but not significant reduction”.
